Test results as given in article PMC5218480 (PLoS ONE, 2017).

System: MV-4-11 cells
Assay: Gene expression microarray analysis (Affymetrix PrimeView) and GSEA
Assay type: cell-based, human
Design: RFU PODN (11730768_x_at) / Fold change /veh PODN (11730768_x_at) / RFU LINC00158 (11744669_a_at) / Fold change /veh LINC00158 (11744669_a_at) / RFU DUSP10 (11751237_a_at) / Fold change /veh DUSP10 (11751237_a_at) / RFU ID3 (11757404_x_at) / Fold change /veh ID3 (11757404_x_at) / RFU PLEKHG5 (11737974_s_at) / Fold change /veh PLEKHG5 (11737974_s_at) / RFU LRRC4B (11730491_at) / Fold change /veh LRRC4B (11730491_at) / RFU GIMAP4 (11747438_a_at) / Fold change /veh GIMAP4 (11747438_a_at) / RFU KRT8 (11758183_x_at) / Fold change /veh KRT8 (11758183_x_at) / RFU CNN1 (11734310_a_at) / Fold change /veh CNN1 (11734310_a_at) / RFU VPS37D (11726825_at) / Fold change /veh VPS37D (11726825_at) / RFU C10orf10 (11716522_x_at) / Fold change /veh C10orf10 (11716522_x_at) / RFU KIR2DL2 /// KIR2DL4 /// KIR2DL5A /// KIR2DL5B /// KIR2DS1 /// KIR2DS2 /// KIR2DS3 /// KIR2DS4 /// KIR3DL3 /// KIR3DL3 /// KIR3DS1 (11738374_at) / Fold change /veh KIR2DL2 /// KIR2DL4 /// KIR2DL5A /// KIR2DL5B /// KIR2DS1 /// KIR2DS2 /// KIR2DS3 /// KIR2DS4 /// KIR3DL3 /// KIR3DL3 /// KIR3DS1 (11738374_at) / RFU C1QL1 (11718748_at) / Fold change /veh C1QL1 (11718748_at) / RFU TMPRSS4 (11747572_a_at) / Fold change /veh TMPRSS4 (11747572_a_at) / RFU HAMP (11756126_x_at) / Fold change /veh HAMP (11756126_x_at) / RFU RNFT2 (11725882_a_at) / Fold change /veh RNFT2 (11725882_a_at) / RFU NR4A2 (11747474_a_at) / Fold change /veh NR4A2 (11747474_a_at) / RFU ABCC12 (11746883_a_at) / Fold change /veh ABCC12 (11746883_a_at) / RFU TMEM136 (11760407_x_at) / Fold change /veh TMEM136 (11760407_x_at) / RFU CLDN22 /// WWC2 (11732394_at) / Fold change /veh CLDN22 /// WWC2 (11732394_at) / RFU HLA-DPB1 (11760878_x_at) / Fold change /veh HLA-DPB1 (11760878_x_at) / RFU SPINT1 (11716480_a_at) / Fold change /veh SPINT1 (11716480_a_at) / RFU GAP43 (11754022_s_at) / Fold change /veh GAP43 (11754022_s_at) / RFU A4GNT (11735810_at) / Fold change /veh A4GNT (11735810_at) / RFU PRB3 (11715151_x_at) / Fold change /veh PRB3 (11715151_x_at) / RFU TUBB4B (11761932_at) / Fold change /veh TUBB4B (11761932_at) / RFU CAPN14 (11732068_a_at) / Fold change /veh CAPN14 (11732068_a_at) / RFU TMCC2 (11721928_a_at) / Fold change /veh TMCC2 (11721928_a_at) / RFU IRGQ (11745062_a_at) / Fold change /veh IRGQ (11745062_a_at) / RFU FAM174B (11720279_a_at) / Fold change /veh FAM174B (11720279_a_at) / RFU TMPRSS4 (11748680_a_at) / Fold change /veh TMPRSS4 (11748680_a_at) / RFU FAM212B (11763350_a_at) / Fold change /veh FAM212B (11763350_a_at) / RFU PLEKHG5 (11743358_a_at) / Fold change /veh PLEKHG5 (11743358_a_at) / RFU ZSCAN30 (11745921_a_at) / Fold change /veh ZSCAN30 (11745921_a_at) / RFU CMKLR1 (11741424_a_at) / Fold change /veh CMKLR1 (11741424_a_at) / RFU LOC101060620 /// MAPK8IP1 (11723275_at) / Fold change /veh LOC101060620 /// MAPK8IP1 (11723275_at) / RFU SPTSSB (11747773_x_at) / Fold change /veh SPTSSB (11747773_x_at) / RFU PRSS12 (11739890_at) / Fold change /veh PRSS12 (11739890_at) / RFU BIN1 (11741810_x_at) / Fold change /veh BIN1 (11741810_x_at) / RFU WNT11 (11732464_a_at) / Fold change /veh WNT11 (11732464_a_at) / RFU C10orf10 (11716521_a_at) / Fold change /veh C10orf10 (11716521_a_at) / RFU C5orf56 (11738089_at) / Fold change /veh C5orf56 (11738089_at) / RFU CYB561 (11721691_x_at) / Fold change /veh CYB561 (11721691_x_at) / RFU ANKRD19P (11752326_a_at) / Fold change /veh ANKRD19P (11752326_a_at) / RFU OR2T12 /// OR2T33 /// OR2T8 (11738714_s_at) / Fold change /veh OR2T12 /// OR2T33 /// OR2T8 (11738714_s_at) / RFU VCAN (11748164_a_at) / Fold change /veh VCAN (11748164_a_at) / RFU JSRP1 (11732532_at) / Fold change /veh JSRP1 (11732532_at) / RFU KRTAP10-11 (11738290_x_at) / Fold change /veh KRTAP10-11 (11738290_x_at) / RFU MYO3A (11730013_a_at) / Fold change /veh MYO3A (11730013_a_at) / RFU EBF3 (11725865_a_at) / Fold change /veh EBF3 (11725865_a_at) / RFU CAMK2N1 (11719241_x_at) / Fold change /veh CAMK2N1 (11719241_x_at) / RFU C5orf56 (11738088_a_at) / Fold change /veh C5orf56 (11738088_a_at) / RFU OLFML3 (11715873_a_at) / Fold change /veh OLFML3 (11715873_a_at) / RFU LOC100653217 /// NTM (11731650_a_at) / Fold change /veh LOC100653217 /// NTM (11731650_a_at) / RFU MAPK11 (11762145_a_at) / Fold change /veh MAPK11 (11762145_a_at) / RFU FIZ1 (11724087_x_at) / Fold change /veh FIZ1 (11724087_x_at) / RFU OASL (11726364_x_at) / Fold change /veh OASL (11726364_x_at) / RFU SOX15 (11748057_x_at) / Fold change /veh SOX15 (11748057_x_at) / RFU CD79A (11719716_a_at) / Fold change /veh CD79A (11719716_a_at) / RFU HIST1H1D (11736915_at) / Fold change /veh HIST1H1D (11736915_at) / RFU CASKIN2 (11723855_a_at) / Fold change /veh CASKIN2 (11723855_a_at) / RFU LOC730098 (11760151_x_at) / Fold change /veh LOC730098 (11760151_x_at) / RFU OR4N2 (11742367_at) / Fold change /veh OR4N2 (11742367_at) / RFU PRRT2 (11749266_a_at) / Fold change /veh PRRT2 (11749266_a_at) / RFU SNX32 (11753110_a_at) / Fold change /veh SNX32 (11753110_a_at) / RFU CDHR5 (11726645_a_at) / Fold change /veh CDHR5 (11726645_a_at) / RFU RCAN1 (11760418_a_at) / Fold change /veh RCAN1 (11760418_a_at) / RFU FAM167A (11723789_a_at) / Fold change /veh FAM167A (11723789_a_at) / RFU FAM26E (11764081_at) / Fold change /veh FAM26E (11764081_at) / RFU ISYNA1 (11749810_s_at) / Fold change /veh ISYNA1 (11749810_s_at) / RFU ACY1 (11761880_at) / Fold change /veh ACY1 (11761880_at) / RFU 11764098_at / Fold change /veh 11764098_at / RFU SAMD14 (11745864_x_at) / Fold change /veh SAMD14 (11745864_x_at) / RFU NPB (11741838_a_at) / Fold change /veh NPB (11741838_a_at) / RFU TMPRSS6 (11731388_a_at) / Fold change /veh TMPRSS6 (11731388_a_at) / RFU KRTAP10-2 (11738614_at) / Fold change /veh KRTAP10-2 (11738614_at) / RFU ARHGAP8 /// PRR5-ARHGAP8 (11727945_x_at) / Fold change /veh ARHGAP8 /// PRR5-ARHGAP8 (11727945_x_at) / RFU KRTAP5-7 /// NADSYN1 (11734609_at) / Fold change /veh KRTAP5-7 /// NADSYN1 (11734609_at) / RFU RASL12 (11751679_a_at) / Fold change /veh RASL12 (11751679_a_at) / RFU CDKN2B (11736163_a_at) / Fold change /veh CDKN2B (11736163_a_at) / RFU PRF1 (11729649_at) / Fold change /veh PRF1 (11729649_at) / RFU, ZNF638 /// ZNF638-IT1 / Fold change vs veh, ZNF638 /// ZNF638-IT1 / RFU, PANK3 / Fold change vs veh, PANK3 / RFU, SH3YL1 / Fold change vs veh, SH3YL1 / RFU, ZEB2 / Fold change vs veh, ZEB2 / RFU, NRIP1 / Fold change vs veh, NRIP1 / RFU, PTTG1IP / Fold change vs veh, PTTG1IP / RFU, CAPN2 / Fold change vs veh, CAPN2 / RFU, MED14 / Fold change vs veh, MED14 / RFU, SNORA58 / Fold change vs veh, SNORA58 / RFU, C1orf63 / Fold change vs veh, C1orf63 / RFU, LRRFIP1 / Fold change vs veh, LRRFIP1 / RFU, NDUFAF7 / Fold change vs veh, NDUFAF7 / RFU, SLC12A2 / Fold change vs veh, SLC12A2 / RFU, IBTK / Fold change vs veh, IBTK / RFU, ESF1 / Fold change vs veh, ESF1 / Fold change vs veh, TMEM50B / RFU, TAOK1 / Fold change vs veh, TAOK1 / RFU, ACBD3 / Fold change vs veh, ACBD3 / RFU, TMA16 / Fold change vs veh, TMA16 / RFU, RWDD3 / Fold change vs veh, RWDD3 / RFU, BCAT1 / Fold change vs veh, BCAT1 / RFU, EDEM3 / Fold change vs veh, EDEM3 / RFU, TMEM33 / Fold change vs veh, TMEM33 / RFU, WDR75 / Fold change vs veh, WDR75 / RFU, AHCTF1 / Fold change vs veh, AHCTF1 / RFU, TFRC / Fold change vs veh, TFRC / RFU, ZDHHC17 / Fold change vs veh, ZDHHC17 / RFU, NOM1 / Fold change vs veh, NOM1 / RFU, ARL8B / Fold change vs veh, ARL8B / RFU, ZBTB11 / Fold change vs veh, ZBTB11 / RFU, TAMM41 / Fold change vs veh, TAMM41 / RFU, KIAA1704 /// LOC100996395 / Fold change vs veh, KIAA1704 /// LOC100996395 / RFU, ING1 / Fold change vs veh, ING1 / RFU, TRMT61B / Fold change vs veh, TRMT61B / RFU, FUBP3 / Fold change vs veh, FUBP3 / RFU, TP53 / Fold change vs veh, TP53 / RFU, TNKS2 / Fold change vs veh, TNKS2 / RFU, ZFP14 / Fold change vs veh, ZFP14 / RFU, ACTR2 / Fold change vs veh, ACTR2 / RFU, PPP3R1 / Fold change vs veh, PPP3R1 / RFU, PIK3R1 / Fold change vs veh, PIK3R1 / RFU, HNRNPA1 / Fold change vs veh, HNRNPA1 / RFU, RNF170 / Fold change vs veh, RNF170 / RFU, ZNF28 / Fold change vs veh, ZNF28 / RFU, RNGTT / Fold change vs veh, RNGTT / RFU, OGT / Fold change vs veh, OGT / RFU, BRD1 / Fold change vs veh, BRD1 / RFU, MARS / Fold change vs veh, MARS / RFU, ZNF655 / Fold change vs veh, ZNF655 / RFU, FAHD1 / Fold change vs veh, FAHD1 / RFU, BDP1 / Fold change vs veh, BDP1 / RFU, LRRCC1 / Fold change vs veh, LRRCC1 / RFU, ARID1A / Fold change vs veh, ARID1A / RFU, ZNF146 / Fold change vs veh, ZNF146 / RFU, ZNF330 / Fold change vs veh, ZNF330 / RFU, GPN3 / Fold change vs veh, GPN3 / RFU, C9orf123 / Fold change vs veh, C9orf123 / RFU, N4BP2L2 / Fold change vs veh, N4BP2L2 / RFU, ARFIP1 / Fold change vs veh, ARFIP1 / RFU, FAM179B / Fold change vs veh, FAM179B / RFU, BCL10 / Fold change vs veh, BCL10 / RFU, UHRF1BP1L / Fold change vs veh, UHRF1BP1L / RFU, BET1 / Fold change vs veh, BET1 / RFU, CNOT2 / Fold change vs veh, CNOT2 / RFU, ZNF268 / Fold change vs veh, ZNF268 / Fold change vs veh, ZNF507 / RFU, DGCR2 / Fold change vs veh, DGCR2 / RFU, WDSUB1 / Fold change vs veh, WDSUB1 / Fold change vs veh, HSP90B1 /// MIR3652 / RFU, ADSS / Fold change vs veh, ADSS / RFU, GK / Fold change vs veh, GK / RFU, ZNF148 / Fold change vs veh, ZNF148 / RFU, TAF9 / Fold change vs veh, TAF9 / RFU, SLC1A5 / Fold change vs veh, SLC1A5 / RFU, SLMO2 / Fold change vs veh, SLMO2 / RFU, ABCC4 / Fold change vs veh, ABCC4 / RFU, LOC101060439 /// RAP1B / Fold change vs veh, LOC101060439 /// RAP1B / RFU, RFX7 / Fold change vs veh, RFX7 / RFU, GTPBP10 / Fold change vs veh, GTPBP10 / RFU, CNEP1R1 / Fold change vs veh, CNEP1R1 / RFU, BIVM-ERCC5 /// ERCC5 / Fold change vs veh, BIVM-ERCC5 /// ERCC5 / RFU, ILF3 / Fold change vs veh, ILF3 / RFU 11762660_at / Fold change /veh 11762660_at / RFU VCAN (11757783_s_at) / Fold change /veh VCAN (11757783_s_at) / RFU DDX43 (11728927_at) / Fold change /veh DDX43 (11728927_at) / RFU KRT8 (11758188_x_at) / Fold change /veh KRT8 (11758188_x_at) / RFU NKD1 (11759106_at) / Fold change /veh NKD1 (11759106_at) / RFU SRD5A1 (11742802_a_at) / Fold change /veh SRD5A1 (11742802_a_at) / RFU TPSAB1 /// TPSB2 (11721975_s_at) / Fold change /veh TPSAB1 /// TPSB2 (11721975_s_at) / RFU GSTM3 (11746129_a_at) / Fold change /veh GSTM3 (11746129_a_at) / RFU IL23R (11737362_x_at) / Fold change /veh IL23R (11737362_x_at) / RFU TMEM51 (11727254_a_at) / Fold change /veh TMEM51 (11727254_a_at) / RFU PIWIL2 (11732686_x_at) / Fold change /veh PIWIL2 (11732686_x_at) / RFU ORM1 (11744905_x_at) / Fold change /veh ORM1 (11744905_x_at) / RFU CCDC152 (11743942_at) / Fold change /veh CCDC152 (11743942_at) / RFU ECM1 (11717891_a_at) / Fold change /veh ECM1 (11717891_a_at) / RFU IL23R (11748794_a_at) / Fold change /veh IL23R (11748794_a_at) / RFU TNFAIP8L3 (11732012_x_at) / Fold change /veh TNFAIP8L3 (11732012_x_at) / RFU MBOAT4 (11741988_at) / Fold change /veh MBOAT4 (11741988_at) / RFU 11764193_at / Fold change /veh 11764193_at / RFU TMEM53 (11763286_at) / Fold change /veh TMEM53 (11763286_at) / RFU MAGEB2 (11727129_at) / Fold change /veh MAGEB2 (11727129_at) / RFU TMEM200A (11744735_a_at) / Fold change /veh TMEM200A (11744735_a_at) / RFU CCDC152 (11751479_a_at) / Fold change /veh CCDC152 (11751479_a_at) / RFU FAM211A (11726209_a_at) / Fold change /veh FAM211A (11726209_a_at) / RFU RGS16 (11746705_a_at) / Fold change /veh RGS16 (11746705_a_at) / RFU VCAN (11755009_s_at) / Fold change /veh VCAN (11755009_s_at) / RFU RHOB (11743442_s_at) / Fold change /veh RHOB (11743442_s_at) / RFU RGS16 (11720943_a_at) / Fold change /veh RGS16 (11720943_a_at) / RFU RGS16 (11720944_at) / Fold change /veh RGS16 (11720944_at) / RFU, VPS4B / Fold change vs veh, VPS4B / RFU, CREB1 / Fold change vs veh, CREB1 / RFU, DNAJC13 / Fold change vs veh, DNAJC13 / RFU, GNAQ / Fold change vs veh, GNAQ / RFU, CDK5R1 / Fold change vs veh, CDK5R1 / RFU, ZRANB3 / Fold change vs veh, ZRANB3 / RFU, CUL4A / Fold change vs veh, CUL4A / RFU, CCNY / Fold change vs veh, CCNY / RFU, UFL1 / Fold change vs veh, UFL1 / RFU, COG3 / Fold change vs veh, COG3 / RFU, DIAPH2 / Fold change vs veh, DIAPH2 / RFU, SKA2 / Fold change vs veh, SKA2 / RFU, AFF3 / Fold change vs veh, AFF3 / RFU, LMF1 / Fold change vs veh, LMF1 / RFU, IPO11 / Fold change vs veh, IPO11 / RFU, DFFB / Fold change vs veh, DFFB / RFU, FOXP1 / Fold change vs veh, FOXP1 / RFU, CARD8 / Fold change vs veh, CARD8 / RFU, STRN3 / Fold change vs veh, STRN3 / RFU, ADK / Fold change vs veh, ADK / RFU, RASSF2 / Fold change vs veh, RASSF2 / RFU, WIPF1 / Fold change vs veh, WIPF1 / RFU, LARP1B / Fold change vs veh, LARP1B / RFU, RASA1 / Fold change vs veh, RASA1 / RFU, RB1 / Fold change vs veh, RB1 / RFU, PPFIA1 / Fold change vs veh, PPFIA1 / RFU, MAT2A / Fold change vs veh, MAT2A / RFU, CCT5 / Fold change vs veh, CCT5 / RFU, WDR92 / Fold change vs veh, WDR92 / RFU, CUX1 / Fold change vs veh, CUX1 / RFU, TTC7A / Fold change vs veh, TTC7A / RFU, TMEM135 / Fold change vs veh, TMEM135 / RFU, DEPTOR / Fold change vs veh, DEPTOR / RFU, CPM / Fold change vs veh, CPM / RFU, DNAJB6 / Fold change vs veh, DNAJB6 / RFU, CACNA2D3 / Fold change vs veh, CACNA2D3 / RFU, DTX4 / Fold change vs veh, DTX4 / RFU, TFCP2 / Fold change vs veh, TFCP2 / RFU, GMCL1 /// GMCL1P1 / Fold change vs veh, GMCL1 /// GMCL1P1 / RFU, AEBP2 / Fold change vs veh, AEBP2 / RFU, SNHG1 /// SNORD22 /// SNORD25 /// SNORD26 /// SNORD27 /// SNORD28 /// SNORD29 /// SNORD31 / Fold change vs veh, SNHG1 /// SNORD22 /// SNORD25 /// SNORD26 /// SNORD27 /// SNORD28 /// SNORD29 /// SNORD31 / Fold change (Aza/veh), C12orf56 (ProbeSet 11735607_a_at) / Fold change (ACY-1035/veh), C12orf56 (ProbeSet 11735607_a_at) / Fold change (Aza/veh), FGFR1OP (ProbeSet 11751329_s_at) / Fold change (ACY-1035/veh), FGFR1OP (ProbeSet 11751329_s_at) / Fold change (Aza/veh), VPS36 (ProbeSet 11739960_a_at) / Fold change (ACY-1035/veh), VPS36 (ProbeSet 11739960_a_at) / RFU SYPL1 (11715823_x_at) / Fold change /veh SYPL1 (11715823_x_at) / RFU IGFBP7 (11715501_s_at) / Fold change /veh IGFBP7 (11715501_s_at) / RFU REEP3 (11722064_at) / Fold change /veh REEP3 (11722064_at) / RFU IGLL1 (11728026_x_at) / Fold change /veh IGLL1 (11728026_x_at): dose or concentration left out as unconfirmed
Conditions: ProbeSet 11739696_s_at; LIST D

Nc1ncn([C@@H]2O[C@H](CO)[C@@H](O)[C@H]2O)c(=O)n1 [azacitidine]
RFU, AFF3: 345.70 RFU
